From patent US7468384B2, “Microbicidal composition” (Rohm and Haas Company, priority 2004, dated 2008)
Like-named read-outs stand apart in the source and are kept apart here.

Experiments:
Format in all cases: cell-based
[1] = system: S. aureus 6538; assay: Synergy test, microtiter plate high resolution MIC assay, bacterium; conditions: S. aureus 6538, TSB
Text: (§1) One measure of synergism is the industrially accepted method described by Kull, F. C.; Eisman, P. C.; Sylwestrowicz, H. D. and Mayer, R. L., in Applied Microbiology 9:538-541 (1961), using the ratio determined by the formula: Qa/QA+Qb/QB=Synergy Index (“SI”) wherein: • QA=concentration of compound A (first component) in ppm, acting alone, which produced an end point (MIC of Compound A). • Qa=concentration of compound A in ppm, in the mixture, which produced an end point. • QB=concentration of compound B (second component) in ppm, acting alone, which produced an end point (MIC of Compound B). • Qb=concentration of compound B in ppm, in the mixture, which produced an end point.
(§2) When the sum of Qa/QA and Qb/QB is greater than one, antagonism is indicated. […] The lower the SI, the greater the synergy shown by that particular mixture. The minimum inhibitory concentration (MIC) of a microbicide is the lowest concentration tested under a specific set of conditions that prevents the growth of added microorganisms.
(§3) Synergy tests were conducted using standard microtiter plate assays with media designed for optimal growth of the test microorganism. Soybean Casein Digest Broth (Tryptic Soy Broth, TSB medium) or minimal salt medium supplemented with 0.2% glucose and 0.1% yeast extract (M9GY medium) was used for testing bacteria; Potato Dextrose Broth (PDB medium) was used for testing yeast and mold. In this method, a wide range of combinations of microbicides was tested by conducting high resolution MIC assays in the presence of various concentrations of MI. High resolution MICs were determined by adding varying amounts of microbicide to one column of a microtitre plate and doing subsequent ten-fold dilutions using an automated liquid handling system to obtain a series of endpoints ranging from 2 ppm to 10,000 ppm active ingredient.

[2] = system: Pseudomonas aeruginosa (P. aeruginosa—ATCC #15442); assay: as above; set-up: key to SI (calculated synergy index) / SI (synergy index): SI = Qa/QA + Qb/QB (mixture vs. alone end-point concentrations); conditions: for MIC: Pseudomonas aeruginosa, ATCC15442; for MIC / SI (synergy index) / Qb (second component at end point, MIC): 24 hours; for Qb: alone or mixed with BIT
Text: as §1, §2, §3
(§4) For MI combinations, the synergy of the combinations of the present invention was determined against two bacteria, Escherichia coli (E. coli—ATCC #8739) or Pseudomonas aeruginosa (P. aeruginosa—ATCC #15442), a yeast, Candida albicans (C. albicans—ATCC 10231), and a mold, Aspergillus niger (A. niger—ATCC 16404). The bacteria were used at a concentration of about 5×10^6 bacteria per mL and the yeast and mold at 5×10^5 fungi per mL. These microorganisms are representative of natural contaminants in many consumer and industrial applications. […] (bacteria).
(§5) For BIT combinations, the synergy of the combinations of the present invention was determined against a bacterium, Pseudomonas aeruginosa (P. aeruginosa—ATCC #15442), a yeast, Candida albicans (C. albicans—ATCC 10231), and a mold, Aspergillus niger (A. niger—ATCC 16404). The bacteria were used at a concentration of about 5×10^6 bacteria per mL and the yeast and mold at 5×10^5 fungi per mL. These microorganisms are representative of natural contaminants in many consumer and industrial applications. […] (yeast and mold) or 30° C. (bacteria).

[3] = system: Candida albicans (C. albicans—ATCC 10231); assay: Synergy test, microtiter plate high resolution MIC assay, yeast; conditions: C. albicans 10231, PDB; for MIC: Candida albicans, ATCC10231; for Qb: alone or mixed with BIT
Text: as §1, §2, §3, §4, §5

[4] = system: Escherichia coli (E. coli—ATCC #8739); assay: Synergy test, microtiter plate high resolution MIC assay, bacterium; conditions: E. coli 8739, M9GY; for Qb: alone or mixed with BIT
Text: as §1, §2
as §3, with “In this method, a wide range of combinations of microbicides was tested by conducting high resolution MIC assays in the presence of various concentrations of MI.” left out
as §4

[5] = system: Aspergillus niger (A. niger—ATCC 16404); assay: Synergy test, microtiter plate high resolution MIC assay, mold; set-up: key to SI (calculated synergy index) / SI (synergy index): SI = Qa/QA + Qb/QB (mixture vs. alone end-point concentrations); conditions: A. niger 16404, PDB; for MIC: Aspergillus niger, ATCC16404, 72 h
Text: as §1, §2, §3, §4, §5

[6] = Table 25, sodium dehydroacetic acid with BIT, 24 hours, alone where Qa = 0
[7] = glutaraldehyde concentration giving end point (MIC), 24 hours
[8] = synergy index BIT + glutaraldehyde, 24 hours

Q: What does the source list for N=C(N)c1ccc(OCCCCCCOc2ccc(C(=N)N)cc2)cc1.O=S(=O)(O)CCO.O=S(=O)(O)CCO [Hexamidine diisethionate]?
A: MIC of component acting alone (QA / QB) ([1]; 72 hours): 4000 ppm; MIC of component acting alone (QA / QB) ([2]; P. aeruginosa 15442, TSB, 72 hours): 2000 ppm; MIC of component acting alone (QA / QB) ([3]; 48 hours): 2000 ppm

Q: What does the source list for CCCCC(CC)CN1CN(CC(CC)CCCC)CC(C)(N)C1 (centres unmarked) [Hexetidine]?
A: MIC ([1]; Staphylococcus aureus, 48 hours, read-out: MIC of component acting alone (QA / QB)): 4 µg/mL; MIC ([2]; P. aeruginosa 15442, TSB, read-out: MIC of component acting alone (QA / QB)): 10000 µg/mL; MIC ([3]; 72 hours, read-out: MIC of component acting alone (QA / QB)): 2000 µg/mL

Q: Which results are given for CC(=O)c1c([O-])cc(C)oc1=O.[Na+] [Sodium dehydroacetic acid]?
A: MIC of component acting alone (QA / QB) ([4]; 24 hours): 10000 ppm; SI (synergy index) ([4]; Table 25, 24 hours): 1.00; Qb (second component at end point, MIC) [4, 6]: 10000 ppm; MIC of component acting alone (QA / QB) ([5]; 4 days): 80 ppm; SI (synergy index) ([5]; Table 25, 1 week): 1.00; Qb (second component at end point, MIC) ([5]; Table 25, sodium dehydroacetic acid with BIT, 1 week, alone where Qa = 0): 200 ppm; MIC of component acting alone (QA / QB) ([2]; P. aeruginosa 15442, M9GY, 48 hours): 10000 ppm; SI (synergy index) ([2]; Table 25, P. aeruginosa 15442, M9GY): 1.00; Qb (second component at end point, MIC) ([2]; Table 25, sodium dehydroacetic acid with BIT, P. aeruginosa 15442, M9GY, alone where Qa = 0): 10000 ppm; MIC of component acting alone (QA / QB) ([3]; 24 hours): 40 ppm; SI (synergy index) ([3]; Table 25, 24 hours): 1.00; Qb (second component at end point, MIC) [3, 6]: 30 ppm

Q: Which results are given for Cl/C=C\C[N+]12CN3CN(CN(C3)C1)C2.[Cl-] [cis-1-(3-chloroallyl)-3,5,7-triaza-1-azoniaadamantane chloride]?
A: MIC ([4]; Escherichia coli, ATCC8739, Table 24, Cis-1-(3-chloroallyl)-3,5,7-triaza-1-azoniaadamantane chloride with BIT, 48 hours, alone where Qa = 0, read-out: Qb (second component at end point, MIC)): 400 µg/mL; SI (synergy index) ([4]; Table 24, 48 hours): 1.00; MIC ([5]; Table 24, Cis-1-(3-chloroallyl)-3,5,7-triaza-1-azoniaadamantane chloride with BIT, 3 days, alone where Qa = 0, read-out: Qb (second component at end point, MIC)): 800 µg/mL; SI (synergy index) ([5]; Table 24, 3 days): 1.00; MIC ([2]; Table 24, Cis-1-(3-chloroallyl)-3,5,7-triaza-1-azoniaadamantane chloride with BIT, P. aeruginosa 15442, M9GY, alone where Qa = 0, read-out: Qb (second component at end point, MIC)): 400 µg/mL; SI (synergy index) ([2]; Table 24, P. aeruginosa 15442, M9GY): 1.00; MIC ([3]; Table 24, Cis-1-(3-chloroallyl)-3,5,7-triaza-1-azoniaadamantane chloride with BIT, 24 hours, alone where Qa = 0, read-out: Qb (second component at end point, MIC)): 800 µg/mL; SI (synergy index) ([3]; Table 24, 24 hours): 1.00

Q: What does the source list for O=CCCCC=O [glutaraldehyde]?
A: Qb [4, 7]: 50 ppm; SI [4, 8]: 1.00; MIC ([5]; glutaraldehyde concentration giving end point (MIC), alone or mixed with BIT, 3 days, read-out: Qb): 400 µg/mL; SI ([5]; synergy index BIT + glutaraldehyde, 3 days): 1.00; Qb ([2]; glutaraldehyde concentration giving end point (MIC), P. aeruginosa 15442, M9GY, 48 hours): 60 ppm; SI ([2]; synergy index BIT + glutaraldehyde, P. aeruginosa 15442, M9GY, 48 hours): 1.00; Qb [3, 7]: 30 ppm; SI [3, 8]: 1.00

Q: Which results are given for O=C([O-])c1ccccc1.[Na+] [sodium benzoate]?
A: SI (synergy index) ([4]; Table 26, 24 hours): 1.00; Qb (second component at end point, MIC) ([4]; Table 26, sodium benzoate with BIT, 24 hours, alone where Qa = 0): 10000 ppm; SI (synergy index) ([5]; Table 26, 1 week): 1.00; Qb (second component at end point, MIC) ([5]; Table 26, sodium benzoate with BIT, 1 week, alone where Qa = 0): 6000 ppm; SI (synergy index) ([2]; Table 26, P. aeruginosa 15442, M9GY): 1.00; Qb (second component at end point, MIC) ([2]; Table 26, sodium benzoate with BIT, P. aeruginosa 15442, M9GY, alone where Qa = 0): 10000 ppm; SI (synergy index) ([3]; Table 26, 48 hours): 1.00; Qb (second component at end point, MIC) ([3]; Table 26, sodium benzoate with BIT, 48 hours, alone where Qa = 0): 2000 ppm

Q: Which Qb ([4]; Imidalozidinyl urea concentration giving end point (MIC), 48 hours) does the source give for “imidazolidinyl urea [Imidalozidinyl urea]” here?
A: The Qb was 400 ppm.

Q: And the SI ([4]; synergy index BIT + Imidalozidinyl urea, 48 hours)?
A: The SI was 1.00.

Q: And the Qb ([5]; Imidalozidinyl urea concentration giving end point (MIC), alone or mixed with BIT, 3 days)?
A: The Qb was 8000 ppm.

Q: What about the SI ([5]; synergy index BIT + Imidalozidinyl urea, 3 days) of the same compound?
A: The SI was 1.00.

Q: What about the Qb ([2]; Imidalozidinyl urea concentration giving end point (MIC), P. aeruginosa 15442, M9GY, 48 hours) of the same compound?
A: The Qb was 400 ppm.

Q: And the SI ([2]; synergy index BIT + Imidalozidinyl urea, P. aeruginosa 15442, M9GY, 48 hours)?
A: The SI was 1.00.

Q: And the Qb ([3]; Imidalozidinyl urea concentration giving end point (MIC), 24 hours)?
A: The Qb was 10000 ppm.

Q: What about the SI ([3]; synergy index BIT + Imidalozidinyl urea, 24 hours) of the same compound?
A: The SI was 1.00.
